Experiment: Solubility in isopropanol/formic acid
Format: physicochemical
Conditions: Isopropanol/Ameisensäure (9:1), 20 °C
Method: So beträgt die Löslichkeit in der Form des 2,5-Diethoxy-4-thio(4′-methylphenyl)benzoldiazonium-sulfoisophthalats in Isopropanol/Ameisensäure (9:1) bei 20 °C 7,3 g/l, wogegen die entsprechende erfindungsgemäße Verbindung der Formel I sich zu 12,6 g/l bei 20 °C löst. Bei den bekannten Sulfoisophtalaten müssen daher zur besseren Lösung Löslichkeit verleihende Verbindungen zugesetzt werden.

SMILES	Löslichkeit (listed as entsprechende erfindungsgemäße Verbindung der Formel I)	Löslichkeit
CCOc1cc(Sc2ccc(C)cc2)c(OCC)cc1[N+]#N [Beispiel 1, 2,5-Diethoxy-4-thio(4′-methylphenyl)benzoldiazonium-sulfosalicylat]	12,6 g/l	
CCOc1cc(Sc2ccc(C)cc2)c(OCC)cc1[N+]#N [2,5-Diethoxy-4-thio(4′-methylphenyl)benzoldiazonium-sulfoisophthalat, reference compound]		7,3 g/l
